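Growth conditions: 96-well plates. Treatment: test compound, 48 hours, 5 concentrations. Analysis: linear interpolation between bracketing concentrations; unreached endpoints set to highest concentration. GI50 = concentration required for 50% inhibition of growth. At the TGI there is no net growth.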
Tests used:
Assay in all cases: growth of human tumour cells (NCI), 48 h
MDA-N = test system: MDA-N
DMS 273 small cell lung = test system: DMS 273 small cell lung
RXF-631 renal = test system: RXF-631 renal
KM20L2 colon = test system: KM20L2 colon
DMS 114 small cell lung = test system: DMS 114 small cell lung
SNB-78 CNS = test system: SNB-78 CNS
HOP-18 NSCLC = test system: HOP-18 NSCLC
LXFL 529 NSCLC = test system: LXFL 529 NSCLC
XF 498 CNS = test system: XF 498 CNS

Structure (SMILES)	TGI (DMS 273 small cell lung) [µM]	TGI (RXF-631 renal) [µM]	TGI (KM20L2 colon) [µM]	TGI (DMS 114 small cell lung) [µM]	TGI (SNB-78 CNS) [µM]	TGI (HOP-18 NSCLC) [µM]	TGI (LXFL 529 NSCLC) [µM]	TGI (XF 498 CNS) [µM]	also measured
N/C(=N\OC(=O)NC(Cl)=C(Cl)Cl)c1cc(C(F)(F)F)cc(C(F)(F)F)c1									TGI (MDA-N): 59.5 µM
N#Cc1cc2cc3c4c(c2oc1=O)CCCN4CCC3									TGI (MDA-N): > 100 µM
COc1cc(C2[C@H]3C(=O)N(c4ccc(Cc5ccc(N6C(=O)[C@@H]7ON(c8ccccc8)C(c8cc(OC)c(OC)c(OC)c8)[C@@H]7C6=O)cc5)cc4)C(=O)[C@H]3ON2c2ccccc2)cc(OC)c1OC (stereo partly specified)	> 100	> 100	> 100	> 100	> 100	> 100			
O=C1C[C@@H](c2ccccc2)NCCCCN(O)CCCN1									TGI (MDA-N): > 100 µM
O=C1c2cnccc2Cc2cccc3c2N1c1ccccc1S3	78.2	> 100	34.8	73.6			> 100	32.6	
OC(COc1ccc(Cl)cc1Cl)CN1CCCC1 (stereo unspecified)									TGI (MDA-N): > 100 µM
C(=C1\CCC/C(=C/c2ccccc2)C1=NNc1ccccc1)/c1ccccc1	> 100	> 100	> 100	> 100	> 100	> 100	> 100		
COc1ccc(-c2cc(-c3ccccc3)c(C#N)c(=O)[nH]2)cc1	> 100	> 100	> 100	> 100	> 100	> 100	> 100		
CC1(C)CCc2cc3c(cc2O1)OC(C)(C)C1c2c(ccc4c2CCC(C)(C)O4)OC31 (stereo unspecified)	> 100			> 100	> 100		> 100	> 100	
Cn1cc2ccccc2c1-c1nc(F)nc(Oc2ccc3c(c2)CC[C@@H]2C3CC[C@]3(C)C(O)CCC23)n1 (stereo partly specified)	43.2		36.9	37.8	36.1	35.7	31.6		
Cn1c2ccccc2c2cc(-c3ccccc3)c3c(c21)C(=O)C=CC3=O	40.6	> 100		19.8	> 64.8		18.6	32.1	TGI (MDA-N): 41.8 µM
CSc1nc2c(nc(N)n2C2OCC(O)C(O)C2O)c(=O)[nH]1 (stereo unspecified)		> 100	> 100	> 100	> 100	> 100	> 100	> 100	
O=C1c2c(c3c4ccccc4n4c3c3c2c2ccccc2n3C/C=C\C4)C(=O)N1Cc1ccccc1			> 100			> 100	> 100	85.9	
Cn1c(=O)c(C(c2ccccc2)c2c(O)c3ccccc3n(C)c2=O)c(O)c2ccccc21	> 100	> 100	> 100	> 100	> 100	> 100	> 100	> 100	
CC(C)O/C=C1\C(=O)C2(SCCS2)[C@H]2CCCC[C@@H]12	> 100	> 100	> 100		> 100	> 100	> 100		
CC1=C(C(=O)Nc2ccccc2C)C(c2ccc(N(C)C)cc2)C(C(=O)Nc2ccccc2C)=C(C)N1	> 100	> 100	> 100	> 100				> 100	
COc1ccc2oc(-c3ccncc3)cc(=O)c2c1	> 100	> 100		> 100			> 100	> 100	

Structure (SMILES)	TGI (DMS 273 small cell lung) [µM]	TGI (RXF-631 renal) [µM]	TGI (KM20L2 colon) [µM]	TGI (DMS 114 small cell lung) [µM]	TGI (SNB-78 CNS) [µM]	TGI (HOP-18 NSCLC) [µM]	TGI (LXFL 529 NSCLC) [µM]	TGI (XF 498 CNS) [µM]	also measured
CCCNC(=O)c1cc2ccccc2cc1C(=O)OC	> 100	> 100	> 100	> 100	> 100	> 100	> 100	> 100	
CCOC(=O)CNC(SC)=C(C#N)C#N	> 100		> 100	> 100	> 100		> 100	> 100	
CCOC(=O)c1c(-c2[nH]c(C(=O)OCc3ccccc3)c(C)c2C(=O)OCC)[nH]c(C(=O)OCc2ccccc2)c1C	> 100		> 100	> 100	> 100	> 100	> 100		
OCCc1cnco1	> 100		> 100	> 100	> 100	> 100	> 100		
COc1ccc(S(=O)(=O)O)cc1NS(=O)(=O)c1ccc(C)cc1									TGI (MDA-N): > 100 µM
O=C1C2Cc3ccccc3CN2C(=O)N1CN1CCN(CN2C(=O)C3Cc4ccccc4CN3C2=O)CC1 (stereo unspecified)	> 100	> 100	> 100	> 100	> 100	> 100			
Cc1cn(C2C=CC(=O)C(C)O2)c(=O)[nH]c1=O (stereo unspecified)	33.7	28.5	30.2		35.4	28.5	28.1	26.4	
COc1cc2c(c3oc(-c4ccc5c(c4)OCO5)c(O)c(=O)c13)CCC(C)(C)O2	> 100	> 100		> 100	> 100	> 100	> 100		
COc1cc2ccc(CC#N)cc2cc1OC	> 100	> 100	> 100	> 100	> 100		> 100	> 100	
COc1cc(NCC(C#N)C#N)ccc1N=Nc1ccc([N+](=O)[O-])cc1	> 100	> 100	> 100	> 100	> 100	> 100	> 100		
CC1SC2=NC3=C(c4ccccc4C3=O)C(c3ccc(Br)cc3)N2C1=O (stereo unspecified)	> 100		> 100	> 100			> 100	> 100	
COc1ccc(CNc2nc3ccccc3nc2-c2cccs2)cc1OC	> 100	> 100	> 100		> 100	> 100	> 100	59.6	
COc1cc(C/C=C/c2ccccc2)c(OC)cc1O									TGI (MDA-N): 33.8 µM
C#CCOCn1cnc2ncnc(Cl)c21	> 100	> 100	> 100	> 100	> 100	> 100	> 100	> 100	
CCC[CH2][Sn]1([CH2]CCC)[O]C(=O)C[S]1	6.07	5.05	15.9	4.08	4.14	2.91	1.55	2.74	GI50 (DMS 273 small cell lung): 2.11 µM; GI50 (LXFL 529 NSCLC): 0.312 µM; GI50 (RXF-631 renal): 0.85 µM; GI50 (KM20L2 colon): 4.06 µM; GI50 (DMS 114 small cell lung): 1.29 µM; GI50 (SNB-78 CNS): 1.17 µM; GI50 (HOP-18 NSCLC): 1.57 µM; GI50 (XF 498 CNS): 1.41 µM
O=C(CCCn1ccnc1[N+](=O)[O-])NCCn1cnc([N+](=O)[O-])c1									TGI (MDA-N): > 100 µM
COC1=NN2C(OC)(c3ccccc3)c3c(-c4ccccc4)sc(-c4ccccc4)c3C2(c2ccccc2)S1 (stereo unspecified)	> 100	> 100			> 100		> 100	> 100	

From PubChem BioAssay (NCI)
